{"source": "patent US20240124491A1", "about": "“METHODS AND COMPOUNDS FOR TREATING FRIEDREICH'S ATAXIA” (Design Therapeutics, Inc., priority 2021, published 2024)"}
{"test_system": "human FXN", "test": "EC50 assay: FXN mRNA expression by qRT-PCR in GM15850 cells after 48 hrs compound treatment", "format": "cell-based", "conditions": "Homo sapiens, 48 hrs incubation, hFXN expression normalized to hGAPDH (qRT-PCR), read-out: EC50 WT (nM, 48 hr)", "in_short": "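FXN transcript, normalized to GAPDH by TaqMan qRT-PCR, read out after 48 hrs of compound on GM15850 cells plated at 150,000 per well. Dosing used five 3-fold steps from 150 nM final, vehicle 0.01% DMSO.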", "units": {"EC50": "nM"}}
{"compound": "Cc1sc2c(c1C)C(c1ccc(Cl)cc1)=N[C@@H](CC(=O)N[C@H]1CC[C@@H](N(C)CCOCCOCCOCCN3CCN(CCOCCOCCOCCNC(=O)CCNC(=O)c4nc(NC(=O)CCNC(=O)C5=CC(NC(=O)c6nc(NC(=O)CCNC(=O)c7cc(NC(=O)c8nccn8C)cn7C)cn6C)CN5C)cn4C)CC3)CC1)c1nnc(C)n1-2", "note": "(stereo partly drawn) [Compound 86]", "EC50": "100 to 500"}
{"compound": "Cc1sc2c(c1C)C(c1ccc(Cl)cc1)=N[C@@H](CC(=O)N[C@H]1CC[C@@H](N(C)CCOCCOCCOCCOCCOCCOCCOCCOCCNC(=O)CCNC(=O)c3nc(NC(=O)CCNC(=O)c4cc(NC(=O)c5nc(NC(=O)CCNC(=O)c6cc(NC(=O)c7nccn7C)cn6C)cn5C)cn4C)cn3C)CC1)c1nnc(C)n1-2", "note": "[Compound 87]", "EC50": "< 100"}
{"compound": "Cc1sc2c(c1C)C(c1ccc(Cl)cc1)=N[C@@H](CC(=O)NC1CCN(CCOCCOCCOCCOCCOCCOCCOCCOCCNC(=O)CCNC(=O)c3nc(NC(=O)CCNC(=O)c4cc(NC(=O)c5nc(NC(=O)CCNC(=O)c6cc(NC(=O)c7nccn7C)cn6C)cn5C)cn4C)cn3C)CC1)c1nnc(C)n1-2", "note": "[Compound 88]", "EC50": "< 100"}
{"compound": "Cc1sc2c(c1C)C(c1ccc(Cl)cc1)=N[C@@H](CC(=O)NC1CCN(C3CN(CCOCCOCCOCCOCCOCCOCCOCCNC(=O)CCNC(=O)c4nc(NC(=O)CCNC(=O)c5cc(NC(=O)c6nc(NC(=O)CCNC(=O)c7cc(NC(=O)c8nccn8C)cn7C)cn6C)cn5C)cn4C)C3)CC1)c1nnc(C)n1-2", "note": "[Compound 89]", "EC50": "< 100"}
{"compound": "Cc1sc2c(c1C)C(c1ccc(Cl)cc1)=N[C@@H](CC(=O)NC1CCN(C3CCN(CCOCCOCCOCCOCCOCCOCCOCCNC(=O)CCNC(=O)c4nc(NC(=O)CCNC(=O)C5=CC(NC(=O)c6nc(NC(=O)CCNC(=O)c7cc(NC(=O)c8nccn8C)cn7C)cn6C)CN5C)cn4C)CC3)CC1)c1nnc(C)n1-2", "note": "(stereo partly drawn) [Compound 90]", "EC50": "100 to 500"}
{"compound": "Cc1sc2c(c1C)C(c1ccc(Cl)cc1)=N[C@@H](CC(=O)NC1CCN(CCN3CCN(CCOCCOCCOCCOCCOCCOCCNC(=O)CCNC(=O)c4nc(NC(=O)CCNC(=O)c5cc(NC(=O)c6nc(NC(=O)CCNC(=O)c7cc(NC(=O)c8nccn8C)cn7C)cn6C)cn5C)cn4C)CC3)CC1)c1nnc(C)n1-2", "note": "[Compound 91]", "EC50": "< 100"}
{"compound": "Cc1sc2c(c1C)C(c1ccc(Cl)cc1)=N[C@@H](CC(=O)NC1CCN(CC#CC#CC3CCN(CCOCCOCCOCCOCCOCCNC(=O)CCNC(=O)c4nc(NC(=O)CCNC(=O)c5cc(NC(=O)c6nc(NC(=O)CCNC(=O)c7cc(NC(=O)c8nccn8C)cn7C)cn6C)cn5C)cn4C)CC3)CC1)c1nnc(C)n1-2", "note": "[Compound 92]", "EC50": "< 100"}
{"compound": "Cc1sc2c(c1C)C(c1ccc(Cl)cc1)=N[C@@H](CC(=O)NC1CCN(CCOCCOCCOCCOCCOCCOCCOCCN3CCN(C(=O)CCNC(=O)c4nc(NC(=O)CCNC(=O)c5nc(NC(=O)c6nc(NC(=O)CCNC(=O)c7cc(NC(=O)c8nccn8C)cn7C)cn6C)cn5C)cn4C)CC3)CC1)c1nnc(C)n1-2", "note": "[Compound 98]", "EC50": "100 to 500"}
{"compound": "Cc1sc2c(c1C)C(c1ccc(Cl)cc1)=N[C@@H](CC(=O)NC1CCN(CCOCCOCCOCCOCCOCCOCCOCCNC3CCN(C(=O)CCNC(=O)c4nc(NC(=O)CCNC(=O)c5nc(NC(=O)c6nc(NC(=O)CCNC(=O)c7cc(NC(=O)c8nccn8C)cn7C)cn6C)cn5C)cn4C)CC3)CC1)c1nnc(C)n1-2", "note": "[Compound 99]", "EC50": "100 to 500"}
{"compound": "Cc1sc2c(c1C)C(c1ccc(Cl)cc1)=N[C@@H](CC(=O)N1CCN(CCOCCOCCOCCOCCOCCOCCOCCOCCNC(=O)CCNC(=O)c3nc(NC(=O)CCNC(=O)c4cc(NC(=O)c5nc(NC(=O)CCNC(=O)c6cc(NC(=O)c7nccn7C)cn6C)cn5C)cn4C)cn3C)CC1)c1nnc(C)n1-2", "note": "[Compound 101]", "EC50": "> 500"}
{"compound": "Cc1sc2c(c1C)C(c1ccc(Cl)cc1)=N[C@@H](CC(=O)Nc1ccc(C#CC#CCN(CCOCCOCCOCCOCCOCCN)CCOCCOCCOCCOCCOCCNC(=O)CCNC(=O)c3nc(NC(=O)CCNC(=O)c4cc(NC(=O)c5nc(NC(=O)CCNC(=O)c6cc(NC(=O)c7nccn7C)cn6C)cn5C)cn4C)cn3C)cc1)c1nnc(C)n1-2", "note": "[Compound 104]", "EC50": "100 to 500"}
{"compound": "Cc1sc2c(c1C)C(c1ccc(Cl)cc1)=N[C@@H](CC(=O)NC1CCN(CCOCCOCCN3CCN(CCOCCOCCOCCOCCNC(=O)CCNC(=O)c4nc(NC(=O)CCNC(=O)c5cc(NC(=O)c6nc(NC(=O)CCNC(=O)c7cc(NC(=O)c8nccn8C)cn7C)cn6C)cn5C)cn4C)CC3)CC1)c1nnc(C)n1-2", "note": "[Compound 106]", "EC50": "< 100"}
{"compound": "Cc1sc2c(c1C)C(c1ccc(Cl)cc1)=N[C@@H](CC(=O)NC1CCN(CCCCCN3CCN(CCOCCOCCOCCOCCOCCNC(=O)CCNC(=O)c4nc(NC(=O)CCNC(=O)c5cc(NC(=O)c6nc(NC(=O)CCNC(=O)c7cc(NC(=O)c8nccn8C)cn7C)cn6C)cn5C)cn4C)CC3)CC1)c1nnc(C)n1-2", "note": "[Compound 107]", "EC50": "100 to 500"}
{"compound": "Cc1sc2c(c1C)C(c1ccc(Cl)cc1)=N[C@@H](CC(=O)NC1CCN(CCOCCOCCOCCOCCN3CCN(CCOCCOCCNC(=O)CCNC(=O)c4nc(NC(=O)CCNC(=O)c5cc(NC(=O)c6nc(NC(=O)CCNC(=O)c7cc(NC(=O)c8nccn8C)cn7C)cn6C)cn5C)cn4C)CC3)CC1)c1nnc(C)n1-2", "note": "[Compound 108]", "EC50": "< 100"}
{"compound": "Cc1sc2c(c1C)C(c1ccc(Cl)cc1)=N[C@@H](CC(=O)NC1CCN(CCOCCOCCOCCOCCOCCN3CCN(CCCCCNC(=O)CCNC(=O)c4nc(NC(=O)CCNC(=O)c5cc(NC(=O)c6nc(NC(=O)CCNC(=O)c7cc(NC(=O)c8nccn8C)cn7C)cn6C)cn5C)cn4C)CC3)CC1)c1nnc(C)n1-2", "note": "[Compound 109]", "EC50": "100 to 500"}
{"compound": "Cc1sc2c(c1C)C(c1ccc(Cl)cc1)=N[C@@H](CC(=O)NCCOCCOCCOCCN(CCOCCOCCOCCNC(=O)C[C@@H]1N=C(c3ccc(Cl)cc3)c3c(sc(C)c3C)-n3c(C)nnc31)CCOCCOCCOCCOCCOCCNC(=O)CCNC(=O)c1nc(NC(=O)CCNC(=O)c3cc(NC(=O)c4nc(NC(=O)CCNC(=O)c5cc(NC(=O)c6nccn6C)cn5C)cn4C)cn3C)cn1C)c1nnc(C)n1-2", "note": "[Compound 111]", "EC50": "< 100"}
{"compound": "Cc1sc2c(c1C)C(c1ccc(Cl)cc1)=N[C@@H](CC(=O)NC1CCN(CCOCCOCCN(CCOCCOCCOCCOCCOCCNC(=O)CCNC(=O)c3nc(NC(=O)CCNC(=O)c4cc(NC(=O)c5nc(NC(=O)CCNC(=O)c6cc(NC(=O)c7nccn7C)cn6C)cn5C)cn4C)cn3C)CCOCCOCCN3CCC(NC(=O)C[C@@H]4N=C(c5ccc(Cl)cc5)c5c(sc(C)c5C)-n5c(C)nnc54)CC3)CC1)c1nnc(C)n1-2", "note": "[Compound 112]", "EC50": "100 to 500"}
{"compound": "Cc1sc2c(c1C)C(c1ccc(Cl)cc1)=N[C@@H](CC(=O)NCCCCCN(CCCCCNC(=O)C[C@@H]1N=C(c3ccc(Cl)cc3)c3c(sc(C)c3C)-n3c(C)nnc31)CCOCCOCCOCCOCCOCCNC(=O)CCNC(=O)c1nc(NC(=O)CCNC(=O)c3cc(NC(=O)c4nc(NC(=O)CCNC(=O)c5cc(NC(=O)c6nccn6C)cn5C)cn4C)cn3C)cn1C)c1nnc(C)n1-2", "note": "[Compound 113]", "EC50": "< 100"}
{"compound": "Cc1sc2c(c1C)C(c1ccc(Cl)cc1)=N[C@@H](CC(=O)NCCCCCN(CCCCCNC(=O)C[C@@H]1N=C(c3ccc(Cl)cc3)c3c(sc(C)c3C)-n3c(C)nnc31)CCOCCOCCOCCOCCOCCOCCOCCNC(=O)CCNC(=O)c1nc(NC(=O)CCNC(=O)c3cc(NC(=O)c4nc(NC(=O)CCNC(=O)c5cc(NC(=O)c6nccn6C)cn5C)cn4C)cn3C)cn1C)c1nnc(C)n1-2", "note": "[Compound 114]", "EC50": "< 100"}
{"compound": "COc1nnc2ccc(N3CCC(c4ccc(OCCN5[C@H](C)CN(C(=O)COCCOCCOCCOCCOCCOCCOCCOCCNC(=O)CCNC(=O)c6nc(NC(=O)CCNC(=O)c7cc(NC(=O)c8nc(NC(=O)CCNC(=O)c9cc(NC(=O)c%10nccn%10C)cn9C)cn8C)cn7C)cn6C)C[C@@H]5C)cc4)CC3)nn12", "note": "[Compound 115]", "EC50": "> 500"}
{"compound": "COc1nnc2ccc(N3CCC(c4ccc(OCCN5CCN(CCOCCOCCOCCOCCOCCOCCOCCOCCNC(=O)CCNC(=O)c6nc(NC(=O)CCNC(=O)c7cc(NC(=O)c8nc(NC(=O)CCNC(=O)c9cc(NC(=O)c%10nccn%10C)cn9C)cn8C)cn7C)cn6C)C(=O)[C@H]5C)cc4)CC3)nn12", "note": "[Compound 116]", "EC50": "> 500"}
{"compound": "Cc1sc2c(c1C)C(c1ccc(Cl)cc1)=N[C@@H](CC(=O)NCCOCCOCCOCCOCCOCCOCCOCCNC(=O)c1sc3c(c1C)C(c1ccc(Cl)cc1)=N[C@@H](CC(=O)NC1CCN(CCOCCOCCOCCOCCOCCOCCOCCOCCNC(=O)CCNC(=O)c4nc(NC(=O)CCNC(=O)c5cc(NC(=O)c6nc(NC(=O)CCNC(=O)c7cc(NC(=O)c8nccn8C)cn7C)cn6C)cn5C)cn4C)CC1)c1nnc(C)n1-3)c1nnc(C)n1-2", "note": "[Compound 117]", "EC50": "< 100"}
{"compound": "Cc1sc2c(c1C)C(c1ccc(N)cc1)=N[C@@H](CC(=O)N1CCC(C#CC#CC3CCN(CCOCCOCCOCCOCCNC(=O)CCNC(=O)c4nc(NC(=O)CCNC(=O)c5cc(NC(=O)c6nc(NC(=O)CCNC(=O)c7cc(NC(=O)c8nccn8C)cn7C)cn6C)cn5C)cn4C)CC3)CC1)c1nnc(C)n1-2", "note": "[Compound 119]", "EC50": "< 100"}
{"compound": "COCCOCCOCCOCCOCCOCCOCCOCCOCCOCCOCCC(=O)Nc1ccc(C2=N[C@@H](CC(=O)N3CCC(C#CC#CC4CCN(CCOCCOCCOCCOCCNC(=O)CCNC(=O)c5nc(NC(=O)CCNC(=O)c6cc(NC(=O)c7nc(NC(=O)CCNC(=O)c8cc(NC(=O)c9nccn9C)cn8C)cn7C)cn6C)cn5C)CC4)CC3)c3nnc(C)n3-c3sc(C)c(C)c32)cc1", "note": "[Compound 120]", "EC50": "100 to 500"}
{"compound": "Cc1sc2c(c1C)C(c1ccc(NC(=O)COCCOCCOCCN3CCN(CC4CCN(C)CC4)CC3)cc1)=N[C@@H](CC(=O)N1CCC(C#CC#CC3CCN(CCOCCOCCOCCOCCNC(=O)CCNC(=O)c4nc(NC(=O)CCNC(=O)c5cc(NC(=O)c6nc(NC(=O)CCNC(=O)c7cc(NC(=O)c8nccn8C)cn7C)cn6C)cn5C)cn4C)CC3)CC1)c1nnc(C)n1-2", "note": "[Compound 121]", "EC50": "100 to 500"}
{"compound": "Cc1sc2c(c1C)C(c1ccc(Cl)cc1)=N[C@@H](CC(=O)N1CCC(C#CC#CCN(CCOCCOCCOCCOCCOCCNC(=O)CCNC(=O)c3nc(NC(=O)CCNC(=O)c4cc(NC(=O)c5nc(NC(=O)CCNC(=O)c6cc(NC(=O)c7nccn7C)cn6C)cn5C)cn4C)cn3C)CC(O)COCC(O)CO)CC1)c1nnc(C)n1-2", "note": "(stereo partly drawn) [Compound 122]", "EC50": "100 to 500"}
{"compound": "Cc1sc2c(c1C)C(c1ccc(Cl)cc1)=N[C@@H](CC(=O)Nc1ccc(N3CCC(N4CCN(CCOCCOCCOCCOCCOCCOCCNC(=O)CCNC(=O)c5nc(NC(=O)CCNC(=O)c6cc(NC(=O)c7nc(NC(=O)CCNC(=O)c8cc(NC(=O)c9nccn9C)cn8C)cn7C)cn6C)cn5C)CC4)CC3)nc1)c1nnc(C)n1-2", "note": "[Compound 124]", "EC50": "< 100"}
